Earlier results as cited in patent US11124883B2, “Method for inhibiting metal corrosion using a benzimidazole-containing composition” (priority 2017, dated 2021).

Details: at 20° C., according to DrugBank

water solubility: about 20 g/L
Structure (SMILES): c1ccc2[nH]cnc2c1 [unsubstituted benzimidazole, benzimidazole]
